Data reported in US8993617B2, “Ire1alpha endonuclease specific inhibitor with cytotoxic activity” (The Board of Trustees of the Leland Stanford Junior …, priority 2010, dated 2015).
Blank lines part the entries; values can stand above or below the molecule they belong to.

Key:
[1] = tested on: XBP1 mRNA splicing; experiment: endogenous XBP1 mRNA splicing by RT-PCR in ER-stressed RPMI8226 cells; format: cell-based, human
Method: FIG. 1B is a gel electrophoresis image showing STF-083010 inhibiting endogenous XBP1 mRNA splicing. RPMI8226 cells were treated with 300 μM thapsigargin (Th), 60 μM STF-083010 or both for indicated amount of time and the relative XBP1 splicing was determined by RT-PCR. Solid arrow indicates the unspliced and broken arrow indicates the spliced form.
(§1) To confirm the molecular target, we analyzed the effect of STF-083010 on endogenous XBP1 mRNA splicing levels in control and ER-stressed RPMI8226 human MM cells (FIG. 1B). […] To establish that this effect was due to a direct interaction between STF-083010 and Ire1α, we analyzed Ire1α enzymatic activity in a cell free system. STF-083010 blocked Ire1α's endonuclease activity (FIG. 1E), without affecting its kinase activity (FIG. 1F).
(§2) Human specimen isolation and assays. Bone marrow aspirates were obtained from MM patients after obtaining informed consent according to institutional guidelines. CD138+ plasma cells were selected by positive magnetic bead selection (StemCell Technologies, Vancouver, Canada) either after isolation of nucleated cells (patients 1-4) or directly (patients 5-8). Peripheral blood cells were obtained by Ficoll-Hypaque density centrifugation from separate control patients. Cell culture, reporter assays, RT-PCR, Western blotting, and bioluminescent imaging.

[2] = tested on: XBP1-luciferase reporter; experiment: XBP1-luciferase bioluminescence in transgenic XBP1-luc mice; format: in vivo; details: i.p.
Method: FIG. 2A is a bar graph showing that STF-083010 blocks bortezomib-induced XBP1 activity in vivo. Transgenic XBP1-luc mice were injected i.p. with drug vehicle (16% chremophor), 1 mg/kg bortezomib, or 1 mg/kg bortezomib and 60 mg/kg STF-083010 and bioluminescence was measured after 24 h. […] Error bars show s.e.m. of at least 4 animals.
FIG. 2B is a set of images of representative mice before and after treatment.
as §2

[3] = target: T1, hIre1α (Homo sapiens, UniProt O75460); experiment: cell free Ire1α RNase (endonuclease) activity, HAC1 mRNA cleavage; format: biochemical; details: hIre1 with 32P HAC1 508 nt transcript, 30 min, 1-100 μM; read-out: half-maximal inhibition of HAC1 mRNA processing
T1 construct: hIre1α protein containing both Ire1 cytoplasmic kinase and RNase domains; made in house
Method: FIG. 1E is a gel electrophoresis image and a line graph showing the STF-083010 effect on cell free Ire1α RNase (endonuclease) activity. […] HAC1 mRNA cleavage reaction was analyzed by separation of products on denaturing polyacrylamide gels, followed by autoradiography. The line graph is the quantitation of HAC1 mRNA processing showing half-maximal inhibition at approximately 25 μM. Error bars represent s.e.m. of 3 independent experiments.
Chemical library screening. […] Autophosphorylation activity was determined with the addition of ^32P-γATP. Endonuclease activity was determined with the addition of radio-labeled HAC1 508 nt RNA substrate synthesized in vitro using α^32P-UTP (Nock S, Gonzalez T, Sidrauski C, Niwa M, Walter P. Purification and activity assays of the catalytic domains of the kinase/endoribonuclease Ire1p from Saccharomyces cerevisiae. Methods Enzymol. 2001; 342:3-10). […] Kinase activity and RNAse cleavage products were quantitated by PAGE and ^32P-γATP or ^32P-UTP autoradiography respectively.

[4] = target: T1, hIre1α; experiment: cell free Ire1α kinase activity (autophosphorylation, 32P-γATP); format: biochemical; details: 0-100 μM, 32P-γATP autophosphorylation
Method: FIG. 1F is a graph and gel that show the effect of STF-083010 on cell free Ire1α kinase activity, Upper: hIre1α was incubated with 32P-γATP and increasing concentrations (0-100 μM) of STF-083010. Ire1α autophosphorylation was analyzed by SDS-PAGE, followed by autoradiography to determine the amount of 32P incorporation (32P-hIRE). […] Error bars represent s.e.m. of 3 independent experiments.
Chemical library screening. The screen was performed in the Stanford High-Throughput Bioscience Center (HTBC). hIre1α protein containing both Ire1 cytoplasmic kinase and RNase domains was expressed and purified from baculovirus as described (Niwa M, Sidrauski C, Kaufman R J, Walter P. A role for presenilin-1 in nuclear accumulation of Ire1 fragments and induction of the mammalian unfolded protein response. Cell. 1999; 99:691-702). Autophosphorylation activity was determined with the addition of ^32P-γATP. Endonuclease activity was determined with the addition of radio-labeled HAC1 508 nt RNA substrate synthesized in vitro using α^32P-UTP (Nock S, Gonzalez T, Sidrauski C, Niwa M, Walter P. Purification and activity assays of the catalytic domains of the kinase/endoribonuclease Ire1p from Saccharomyces cerevisiae. Methods Enzymol. 2001; 342:3-10). […] Kinase activity and RNAse cleavage products were quantitated by PAGE and ^32P-γATP or ^32P-UTP autoradiography respectively.

[5] = tested on: sXBP1 protein; experiment: sXBP1 protein production by immunoblotting in MM cell lines; format: cell-based, human; details: 300 μM Th and 60 μM STF-083010
Method: FIG. 1C is set of a gel electrophoresis images showing STF-083010 inhibiting the production of sXBP1 protein but not the auto-phosphorylation of Ire1α. The left panel indicates MM cell lines that were treated for the indicated times with 300 μM Th and 60 μM STF-083010 and sXBP1 protein was detected by immunoblotting.
as §1, §2

[6] = target: T2, Ire1α (Homo sapiens, UniProt O75460); experiment: Ire1α auto-phosphorylation by immunoblot in RPMI8226 cells; format: cell-based; details: 300 μM Th and 60 μM STF-083010
T2 construct: RPMI8226 cells were treated with 300 μM Th and 60 μM STF-083010; endogenous in cells; host or cells: RPMI8226 human multiple myeloma cells
Method: FIG. 1D is a set of gel electrophoresis images in which RPMI8226 cells were treated with 300 μM Th and 60 μM STF-083010 for the indicated times and the levels of phosphorylated and total Ire1α were detected using specific antibodies.

[7] = histology (H&E) of normal mouse tissues after treatment; format: in vivo; details: 60 mg/kg×1 and 30 mg/kg×2
Method: FIG. 3 is a set of images of the H&E stained sections of normal mouse tissues and RPMI8226 xenograft tumors treated with drug vehicle (16% chremophor in saline) or 30 mg/kg STF-083010 weekly for two weeks.

[8] = tested on: RPMI8226, MM.1S and MM.1R MM cells; experiment: in vitro cytotoxicity in MM cell lines, trypan blue exclusion; format: cell-based, human; details: 0, 30 or 60 μM, viable cell number measured daily
Method: FIG. 2C is a set of line graphs showing in vitro cytotoxicity of STF-083010. RPMI8226, MM.1S and MM.1R MM cells that were treated with 0, 30 or 60 μM of STF-083010 and viable cell number was measured daily by the trypan blue exclusion method.
(§3) In order to determine anti-myeloma activity of STF-083010, first we treated a panel of MM cell lines with increasing concentrations of the compound in vitro and measured viability by trypan blue exclusion (FIG. 2C). […] Next, we treated RPMI8226 human MM cells grown as tumor xenografts in NSG mice. […] Additionally, we treated fresh CD138+ cells isolated from MM patients and compared the ex vivo toxicity to that of cells from 7 control patients (FIG. 2E, Tables 1,2).

[9] = tested on: RPMI8226 MM cells; experiment: RPMI8226 subcutaneous tumor xenografts in NOD/SCID/IL2Rγ null mice; format: in vivo; details: intraperitoneal, 30 mg/kg once weekly for 2 weeks (d1, d8)
Method: FIG. 2D is a line graph showing the antitumor activity of STF-083010 in vivo. RPMI8226 MM cells were established as subcutaneous tumor xenografts in NOD/SCID/IL2Rγ null mice. When tumors reached an average volume of 150 mm3, 2 groups of 5 mice each were treated with 30 mg/kg STF-083010 or drug vehicle once weekly for 2 weeks.
as §3

[10] = tested on: CD138+ multiple myeloma cells; experiment: ex vivo cytotoxicity in CD138+ cells from MM patients (Annexin V/Propidium Iodide); format: cell-based, human
From the text: MM cells were obtained by CD138+ selection from bone marrow samples from MM patients; lymphocytes were obtained by Ficoll density-gradient centrifugation of peripheral blood samples from control patients, followed by staining with anti CD3, anti CD19 and anti CD56 monoclonal antibodies to differentiate between T-, B- and NK cells.
Next, we treated RPMI8226 human MM cells grown as tumor xenografts in NSG mice. […] Additionally, we treated fresh CD138+ cells isolated from MM patients and compared the ex vivo toxicity to that of cells from 7 control patients (FIG. 2E, Tables 1,2).
as §2

[11] = tested on: CD3 positive T cells; experiment: ex vivo cytotoxicity in peripheral blood T cells (7-aminoactinomycin D); format: cell-based, human; details: average of UPN 9-15
Method: (§4) FIG. 2E is a line graph showing that STF-083010 is preferentially cytotoxic against human MM cells. MM cells were obtained by CD138+ selection from bone marrow samples from MM patients; lymphocytes were obtained by Ficoll density-gradient centrifugation of peripheral blood samples from control patients, followed by staining with anti CD3, anti CD19 and anti CD56 monoclonal antibodies to differentiate between T-, B- and NK cells. Cells were cultured with the indicated concentrations of STF-083010 for 24 h and cell viability was measured by flow cytometric analysis of Annexin V/Propidium Iodide (MM) or 7-aminoactinomycin D (peripheral blood lymphocytes) stained samples.
as §3
(§5) Human specimen isolation and assays. Bone marrow aspirates were obtained from MM patients after obtaining informed consent according to institutional guidelines. […]

[12] = tested on: CD19 positive B cells; experiment: ex vivo cytotoxicity in peripheral blood B cells (7-aminoactinomycin D); format: cell-based, human; details: average of UPN 9-15
Method: as §4, §3, §5

[13] = tested on: CD56 positive NK cells; experiment: ex vivo cytotoxicity in peripheral blood NK cells (7-aminoactinomycin D); format: cell-based, human; details: average of UPN 9-15
Method: as §4, §3, §5

T1 sequence (O75460 465-977 limits assumed): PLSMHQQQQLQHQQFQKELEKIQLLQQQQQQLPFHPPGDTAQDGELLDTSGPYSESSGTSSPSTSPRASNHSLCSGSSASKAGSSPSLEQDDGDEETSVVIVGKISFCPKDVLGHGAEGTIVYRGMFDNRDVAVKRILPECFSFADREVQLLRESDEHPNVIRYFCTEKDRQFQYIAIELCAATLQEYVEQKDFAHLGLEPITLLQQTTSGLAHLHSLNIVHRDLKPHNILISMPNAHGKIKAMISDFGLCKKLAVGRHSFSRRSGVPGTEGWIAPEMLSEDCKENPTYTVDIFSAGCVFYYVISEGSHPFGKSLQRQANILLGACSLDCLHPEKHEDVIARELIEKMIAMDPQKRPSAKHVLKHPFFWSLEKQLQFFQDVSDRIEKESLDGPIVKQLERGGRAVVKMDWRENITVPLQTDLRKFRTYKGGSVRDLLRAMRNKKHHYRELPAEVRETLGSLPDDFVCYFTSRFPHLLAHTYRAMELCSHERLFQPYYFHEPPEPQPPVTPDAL
T2 sequence (O75460 19-977): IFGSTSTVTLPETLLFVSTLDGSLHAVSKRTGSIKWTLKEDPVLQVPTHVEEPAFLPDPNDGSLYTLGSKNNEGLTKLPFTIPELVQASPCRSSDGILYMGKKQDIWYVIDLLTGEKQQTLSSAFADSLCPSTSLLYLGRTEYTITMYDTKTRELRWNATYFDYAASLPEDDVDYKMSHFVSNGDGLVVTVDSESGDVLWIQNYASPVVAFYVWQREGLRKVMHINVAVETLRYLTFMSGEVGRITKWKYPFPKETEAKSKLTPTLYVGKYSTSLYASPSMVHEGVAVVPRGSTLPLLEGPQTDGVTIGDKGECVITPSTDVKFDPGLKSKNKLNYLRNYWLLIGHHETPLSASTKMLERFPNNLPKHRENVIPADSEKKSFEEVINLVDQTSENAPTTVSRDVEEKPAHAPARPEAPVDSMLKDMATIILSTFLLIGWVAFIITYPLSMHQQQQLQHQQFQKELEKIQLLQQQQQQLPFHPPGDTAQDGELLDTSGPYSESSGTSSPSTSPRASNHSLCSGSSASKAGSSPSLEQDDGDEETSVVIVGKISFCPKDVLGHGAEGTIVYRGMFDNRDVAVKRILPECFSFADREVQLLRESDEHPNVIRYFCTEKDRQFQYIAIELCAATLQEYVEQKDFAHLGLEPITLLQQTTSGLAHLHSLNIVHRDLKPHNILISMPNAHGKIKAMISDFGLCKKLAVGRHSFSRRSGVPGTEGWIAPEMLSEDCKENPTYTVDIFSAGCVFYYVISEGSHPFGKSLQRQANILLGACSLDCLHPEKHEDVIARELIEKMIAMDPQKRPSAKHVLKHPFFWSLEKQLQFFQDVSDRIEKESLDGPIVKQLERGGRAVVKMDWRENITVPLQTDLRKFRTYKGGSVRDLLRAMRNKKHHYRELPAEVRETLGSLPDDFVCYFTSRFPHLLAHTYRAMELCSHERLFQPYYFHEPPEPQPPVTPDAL

SMILES: C/C=C(/C)C(=O)O[C@H]1C(C)=C2[C@H]([C@@H]1OC(=O)CCCCCCC)[C@@](C)(OC(C)=O)C[C@H](OC(=O)CCC)[C@@]1(O)[C@H]2OC(=O)[C@@]1(C)O [thapsigargin, reference compound]
XBP1 splicing on incubation with thapsigargin alone ([1]; RPMI8226 cells, 300 μM thapsigargin): resulted in XBP1 splicing

XBP1-luciferase bioluminescent activity after bortezomib alone ([2]; 1 mg/kg bortezomib, 24 h): commensurate increase
SMILES: CC(C)C[C@H](NC(=O)[C@H](Cc1ccccc1)NC(=O)c1cnccn1)B(O)O [bortezomib, reference compound]

SMILES: O=S(=O)(/N=C/c1c(O)ccc2ccccc12)c1cccs1 [STF-083010, (E)-N-((2-hydroxynaphthalen-1-yl)methylene)thiophene-2-sulfonamide]
IC50 [3]: ~25 µM | Ire1α kinase activity during co-incubation [4]: no significant change | XBP1 mRNA splicing induced by thapsigargin ([1]; RPMI8226 cells, 300 μM thapsigargin (Th), 60 μM STF-083010): almost completely blocked | XBP1 splicing activated by other types of ER stress ([1]; tunicamycin treatment, glucose deprivation or severe hypoxia (data not shown)): inhibited XBP1 splicing | production of active sXBP1 protein [5]: inhibited production of active sXBP1 protein | Ire1α kinase activity, immunoblot of autophosphorylated Ire1α [6]: did not inhibit | XBP1-luciferase bioluminescent signal when injected with bortezomib ([2]; 1 mg/kg bortezomib and 60 mg/kg STF-083010, 24 h): no increase in bioluminescent signal | histologic effects after treatment [7]: did not find any histologic effects | viability of MM cell lines [8]: cytostatic and cytotoxic activity in a dose- and time-dependent manner | growth of tumor xenografts [9]: significantly inhibited | LD50 24 h in multiple myeloma cells, AVERAGE ([10]; average of UPN 1-8): 27.8 µM | cytotoxicity to CD138+ cells compared to B (CD19+), T (CD3+), and NK (CD56+) cells ([10]; ex vivo, 24 h): selectively cytotoxic | LD50 (24 h) CD3 positive, AVERAGE [11]: 136.6 µM | LD50 (24 h) CD19 positive, AVERAGE [12]: 73.1 µM | LD50 (24 h) CD56 positive, AVERAGE [13]: 71.3 µM
